Data published in article PMC4843002, “Identification of pyrazolopyridazinones as PDEδ inhibitors” (Nature Communications, 2016).

Tests used:
I2 = experiment: Cerep binding, antagonist radioligand; details: 5 µM
[1] = test system: Ca2+ channel (L, diltiazem site) (benzothiazepines); experiment: Cerep binding, antagonist radioligand; details: 5 µM
5-HT transporter (h) = biological target: T1, 5-HT transporter (h) (Homo sapiens, UniProt P31645); experiment: Cerep binding, antagonist radioligand; details: read-out: % Inhibition of Control Specific Binding
T1 construct: purchased Eurofins Pharma Discovery Services (CEREP diversity panel)
T1 sequence (P31645 whole entry): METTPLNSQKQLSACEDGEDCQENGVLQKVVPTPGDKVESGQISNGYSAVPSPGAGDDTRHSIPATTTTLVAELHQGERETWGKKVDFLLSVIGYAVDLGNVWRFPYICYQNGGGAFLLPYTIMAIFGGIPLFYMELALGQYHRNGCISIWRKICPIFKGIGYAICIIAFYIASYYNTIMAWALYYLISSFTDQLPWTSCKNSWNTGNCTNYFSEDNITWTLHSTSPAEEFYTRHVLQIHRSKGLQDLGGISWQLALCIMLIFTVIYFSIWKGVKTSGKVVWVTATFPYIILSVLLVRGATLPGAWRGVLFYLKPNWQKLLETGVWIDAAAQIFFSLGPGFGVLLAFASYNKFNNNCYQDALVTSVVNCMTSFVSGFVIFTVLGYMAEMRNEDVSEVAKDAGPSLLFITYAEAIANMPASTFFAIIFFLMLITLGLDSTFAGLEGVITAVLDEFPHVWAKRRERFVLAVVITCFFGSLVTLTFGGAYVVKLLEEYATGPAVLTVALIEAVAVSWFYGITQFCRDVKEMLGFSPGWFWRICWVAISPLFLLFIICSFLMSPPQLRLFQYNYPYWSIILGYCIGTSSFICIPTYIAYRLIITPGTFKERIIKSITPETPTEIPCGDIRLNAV

beta 2 (h) = biological target: T2, beta 2 (h) (Homo sapiens, UniProt P07550); experiment: Cerep binding, agonist radioligand; details: read-out: % Inhibition of Control Specific Binding
T2 construct: purchased Eurofins Pharma Discovery Services (CEREP diversity panel)

[2] = test system: adenylyl cyclase (activator effect); experiment: Cerep enzyme and cell-based assays; format: biochemical; details: 5 µM
MC4 (h) = biological target: T3, MC4 (h) (Homo sapiens, UniProt P32245); experiment: Cerep binding, agonist radioligand; details: read-out: % Inhibition of Control Specific Binding
T3 construct: purchased Eurofins Pharma Discovery Services (CEREP diversity panel)
T3 sequence (P32245 whole entry): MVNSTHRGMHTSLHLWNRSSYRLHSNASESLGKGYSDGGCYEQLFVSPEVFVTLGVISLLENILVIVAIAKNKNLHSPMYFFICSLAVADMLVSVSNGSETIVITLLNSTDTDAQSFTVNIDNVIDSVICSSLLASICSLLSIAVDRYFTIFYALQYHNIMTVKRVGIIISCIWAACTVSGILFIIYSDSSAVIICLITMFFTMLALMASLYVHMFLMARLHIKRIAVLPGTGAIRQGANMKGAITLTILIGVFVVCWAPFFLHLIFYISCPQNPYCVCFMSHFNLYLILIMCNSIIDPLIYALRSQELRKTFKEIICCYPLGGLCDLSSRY

CB2 (h) = biological target: T4, CB2 (h) (Homo sapiens, UniProt P34972); experiment: Cerep binding, agonist radioligand; details: read-out: % Inhibition of Control Specific Binding
T4 construct: purchased Eurofins Pharma Discovery Services (CEREP diversity panel)
T4 sequence (P34972 whole entry): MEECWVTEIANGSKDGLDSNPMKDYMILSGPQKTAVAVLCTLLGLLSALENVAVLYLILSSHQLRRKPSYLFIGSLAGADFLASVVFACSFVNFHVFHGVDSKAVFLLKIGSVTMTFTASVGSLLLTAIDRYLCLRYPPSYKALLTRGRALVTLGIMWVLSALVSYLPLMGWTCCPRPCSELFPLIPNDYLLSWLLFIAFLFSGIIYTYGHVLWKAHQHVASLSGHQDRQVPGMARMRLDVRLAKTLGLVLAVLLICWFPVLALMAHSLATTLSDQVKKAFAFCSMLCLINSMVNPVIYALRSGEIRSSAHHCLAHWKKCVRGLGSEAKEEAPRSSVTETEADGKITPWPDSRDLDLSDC

alpha 2 (non-selective) = experiment: Cerep binding, antagonist radioligand; details: 5 µM
H1 (h) = biological target: T5, H1 (h) (Homo sapiens, UniProt P35367); experiment: Cerep binding, antagonist radioligand; details: read-out: % Inhibition of Control Specific Binding
T5 construct: purchased Eurofins Pharma Discovery Services (CEREP diversity panel)

[3] = test system: sigma (non-selective) (h); experiment: Cerep binding, agonist radioligand; set-up: species or system human; details: 5 µM
PDE1B (h) = biological target: T6, PDE1B (h) (Homo sapiens, UniProt Q01064); experiment: Cerep enzyme and cell-based assays; format: biochemical; details: read-out: % Inhibition of Control Values
T6 construct: purchased Eurofins Pharma Discovery Services (CEREP diversity panel)

5-lipoxygenase (h) = biological target: T7, 5-lipoxygenase (h) (Homo sapiens, UniProt P09917); experiment: Cerep enzyme and cell-based assays; format: biochemical; details: read-out: % Inhibition of Control Values
T7 construct: purchased Eurofins Pharma Discovery Services (CEREP diversity panel)

NK2 (h) = biological target: T8, NK2 (h) (Homo sapiens, UniProt P21452); experiment: Cerep binding, agonist radioligand; details: read-out: % Inhibition of Control Specific Binding
T8 construct: purchased Eurofins Pharma Discovery Services (CEREP diversity panel)
T8 sequence (P21452 whole entry): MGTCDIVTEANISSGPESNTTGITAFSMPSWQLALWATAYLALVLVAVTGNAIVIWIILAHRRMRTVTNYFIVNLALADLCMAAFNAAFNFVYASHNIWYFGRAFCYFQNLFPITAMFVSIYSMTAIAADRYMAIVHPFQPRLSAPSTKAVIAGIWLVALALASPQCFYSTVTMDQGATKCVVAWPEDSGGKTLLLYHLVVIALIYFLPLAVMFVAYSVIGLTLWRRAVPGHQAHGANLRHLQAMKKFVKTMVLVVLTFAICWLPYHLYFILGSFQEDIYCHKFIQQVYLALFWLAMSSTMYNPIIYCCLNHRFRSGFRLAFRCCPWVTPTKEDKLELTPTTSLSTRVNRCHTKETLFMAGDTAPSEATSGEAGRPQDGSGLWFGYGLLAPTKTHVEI

NOP (ORL1) (h) = biological target: T9, NOP (ORL1) (h) (Homo sapiens, UniProt P41146); experiment: Cerep binding, agonist radioligand; details: read-out: % Inhibition of Control Specific Binding
T9 construct: purchased Eurofins Pharma Discovery Services (CEREP diversity panel)

Eg5 (h) = biological target: T10, Eg5 (h) (Homo sapiens, UniProt P52732); experiment: Cerep enzyme and cell-based assays; format: biochemical; details: read-out: % Inhibition of Control Values
T10 construct: Eurofins Pharma Discovery Services (CEREP diversity panel, outsourced assay)
T10 sequence (P52732 whole entry): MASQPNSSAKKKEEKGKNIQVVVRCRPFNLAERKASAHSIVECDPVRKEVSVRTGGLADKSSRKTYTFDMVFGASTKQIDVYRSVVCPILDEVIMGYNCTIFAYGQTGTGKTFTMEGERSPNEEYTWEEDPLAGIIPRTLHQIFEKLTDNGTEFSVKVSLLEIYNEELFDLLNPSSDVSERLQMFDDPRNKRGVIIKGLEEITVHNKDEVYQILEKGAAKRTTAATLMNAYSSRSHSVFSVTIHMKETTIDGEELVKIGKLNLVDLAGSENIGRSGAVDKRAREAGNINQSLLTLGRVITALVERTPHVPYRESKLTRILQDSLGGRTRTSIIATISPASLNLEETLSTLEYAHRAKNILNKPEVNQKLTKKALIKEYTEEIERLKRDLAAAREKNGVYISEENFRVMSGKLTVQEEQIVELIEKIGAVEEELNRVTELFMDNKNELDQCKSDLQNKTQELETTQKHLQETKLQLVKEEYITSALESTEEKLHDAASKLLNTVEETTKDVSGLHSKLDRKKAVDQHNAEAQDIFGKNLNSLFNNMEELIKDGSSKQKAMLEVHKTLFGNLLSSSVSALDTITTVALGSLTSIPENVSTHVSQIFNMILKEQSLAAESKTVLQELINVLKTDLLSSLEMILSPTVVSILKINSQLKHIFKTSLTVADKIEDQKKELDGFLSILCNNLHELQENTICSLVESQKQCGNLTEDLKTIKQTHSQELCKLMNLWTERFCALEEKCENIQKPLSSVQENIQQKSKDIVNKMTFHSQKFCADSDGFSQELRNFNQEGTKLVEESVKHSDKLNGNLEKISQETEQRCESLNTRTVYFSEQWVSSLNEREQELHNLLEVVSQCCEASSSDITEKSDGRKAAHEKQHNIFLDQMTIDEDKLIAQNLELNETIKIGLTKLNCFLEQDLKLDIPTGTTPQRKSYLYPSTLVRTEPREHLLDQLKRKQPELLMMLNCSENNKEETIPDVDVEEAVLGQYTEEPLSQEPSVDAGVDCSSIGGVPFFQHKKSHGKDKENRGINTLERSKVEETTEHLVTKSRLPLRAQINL

dopamine transporter (h) = biological target: T11, dopamine transporter (h) (Homo sapiens, UniProt Q01959); experiment: Cerep binding, antagonist radioligand; details: read-out: % Inhibition of Control Specific Binding
T11 construct: purchased Eurofins Pharma Discovery Services (CEREP diversity panel)
T11 sequence (Q01959 whole entry): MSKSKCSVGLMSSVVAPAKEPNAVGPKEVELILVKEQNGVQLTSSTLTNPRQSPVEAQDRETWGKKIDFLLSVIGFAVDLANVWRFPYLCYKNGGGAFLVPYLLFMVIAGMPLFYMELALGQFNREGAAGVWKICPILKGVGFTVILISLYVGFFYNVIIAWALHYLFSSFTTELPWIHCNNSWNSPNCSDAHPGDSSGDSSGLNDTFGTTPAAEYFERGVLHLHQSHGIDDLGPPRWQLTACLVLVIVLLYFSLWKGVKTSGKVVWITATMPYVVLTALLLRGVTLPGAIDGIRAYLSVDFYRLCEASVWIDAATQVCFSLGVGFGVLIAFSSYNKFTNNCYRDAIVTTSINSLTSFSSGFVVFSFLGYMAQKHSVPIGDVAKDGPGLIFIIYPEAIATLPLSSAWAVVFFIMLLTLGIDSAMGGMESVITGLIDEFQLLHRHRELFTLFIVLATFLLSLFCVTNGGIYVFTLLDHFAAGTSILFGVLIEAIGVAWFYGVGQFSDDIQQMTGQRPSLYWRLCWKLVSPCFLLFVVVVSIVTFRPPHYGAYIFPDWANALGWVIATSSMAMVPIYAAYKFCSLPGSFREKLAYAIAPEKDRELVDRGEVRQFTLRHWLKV

AR (h) = biological target: T12, AR (h) (Homo sapiens, UniProt P10275, T878A); experiment: Cerep binding, agonist radioligand; details: read-out: % Inhibition of Control Specific Binding
T12 construct: purchased Eurofins Pharma Discovery Services (CEREP diversity panel)
T12 sequence (P10275 whole entry T878A): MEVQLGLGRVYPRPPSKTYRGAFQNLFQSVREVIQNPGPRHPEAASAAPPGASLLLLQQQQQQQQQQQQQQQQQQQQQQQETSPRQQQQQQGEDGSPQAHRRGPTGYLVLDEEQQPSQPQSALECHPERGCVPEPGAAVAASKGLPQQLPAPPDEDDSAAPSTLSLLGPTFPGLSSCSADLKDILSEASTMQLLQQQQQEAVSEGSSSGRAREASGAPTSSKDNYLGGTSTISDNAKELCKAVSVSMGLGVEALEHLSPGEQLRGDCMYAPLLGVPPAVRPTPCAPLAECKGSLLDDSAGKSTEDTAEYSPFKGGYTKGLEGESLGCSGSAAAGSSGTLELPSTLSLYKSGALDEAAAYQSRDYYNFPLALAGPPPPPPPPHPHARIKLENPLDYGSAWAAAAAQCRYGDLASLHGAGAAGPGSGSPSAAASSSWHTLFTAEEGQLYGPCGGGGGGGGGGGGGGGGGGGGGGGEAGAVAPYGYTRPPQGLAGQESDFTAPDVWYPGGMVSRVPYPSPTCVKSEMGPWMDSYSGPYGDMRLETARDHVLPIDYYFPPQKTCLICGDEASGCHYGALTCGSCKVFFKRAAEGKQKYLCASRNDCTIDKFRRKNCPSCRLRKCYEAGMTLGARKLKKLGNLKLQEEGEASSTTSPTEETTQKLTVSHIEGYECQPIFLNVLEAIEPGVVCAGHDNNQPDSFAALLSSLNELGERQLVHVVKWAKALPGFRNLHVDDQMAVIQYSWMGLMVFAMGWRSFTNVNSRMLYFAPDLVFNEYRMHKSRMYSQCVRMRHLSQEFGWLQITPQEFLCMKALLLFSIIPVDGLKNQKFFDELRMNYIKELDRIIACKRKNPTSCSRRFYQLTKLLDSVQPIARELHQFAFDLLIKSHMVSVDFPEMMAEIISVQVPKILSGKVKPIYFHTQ

V1a (h) = biological target: T13, V1a (h) (Homo sapiens, UniProt P37288); experiment: Cerep binding, agonist radioligand; details: read-out: % Inhibition of Control Specific Binding
T13 construct: purchased Eurofins Pharma Discovery Services (CEREP diversity panel)
T13 sequence (P37288 whole entry): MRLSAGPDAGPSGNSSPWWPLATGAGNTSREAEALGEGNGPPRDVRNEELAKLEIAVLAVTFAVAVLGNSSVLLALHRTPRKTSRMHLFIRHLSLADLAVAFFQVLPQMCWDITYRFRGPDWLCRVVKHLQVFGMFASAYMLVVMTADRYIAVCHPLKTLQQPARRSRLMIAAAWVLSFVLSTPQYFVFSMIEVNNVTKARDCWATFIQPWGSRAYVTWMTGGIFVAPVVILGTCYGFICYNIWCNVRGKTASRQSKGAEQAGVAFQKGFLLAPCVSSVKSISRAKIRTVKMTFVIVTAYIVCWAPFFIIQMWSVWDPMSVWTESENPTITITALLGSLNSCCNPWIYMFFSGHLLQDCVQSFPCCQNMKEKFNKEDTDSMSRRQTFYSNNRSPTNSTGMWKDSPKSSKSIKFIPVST

Cl- channel (GABA-gated) = experiment: Cerep binding, antagonist radioligand; details: 5 µM
PPARgamma (h) = biological target: T14, PPARgamma (h) (Homo sapiens, UniProt P37231); experiment: Cerep binding, agonist radioligand; details: read-out: % Inhibition of Control Specific Binding
T14 construct: purchased Eurofins Pharma Discovery Services (CEREP diversity panel)

[4] = biological target: T15, norepinephrine transporter (h) (Homo sapiens, UniProt P23975); experiment: Cerep binding, antagonist radioligand; details: read-out: % Inhibition of Control Specific Binding
T15 construct: purchased Eurofins Pharma Discovery Services (CEREP diversity panel)

CCK1 (CCKA) (h) = biological target: T16, CCK1 (CCKA) (h) (Homo sapiens, UniProt P32238); experiment: Cerep binding, agonist radioligand; details: read-out: % Inhibition of Control Specific Binding
T16 construct: purchased Eurofins Pharma Discovery Services (CEREP diversity panel)

D1 (h) = biological target: T17, D1 (h) (Homo sapiens, UniProt P21728); experiment: Cerep binding, antagonist radioligand; details: read-out: % Inhibition of Control Specific Binding
T17 construct: purchased Eurofins Pharma Discovery Services (CEREP diversity panel)

A1 (h) = biological target: T18, A1 (h) (Homo sapiens, UniProt P30542); experiment: Cerep binding, antagonist radioligand; details: read-out: % Inhibition of Control Specific Binding
T18 construct: purchased Eurofins Pharma Discovery Services (CEREP diversity panel)

Panc-Tu-I cells [5] = experiment: RTCA growth profile; format: cell-based, human
Procedure: RTCA was performed using 16-well E-plates on the Dual Plate xCELLigence instrument (Roche Applied Science, Indianapolis, IN). This system measures a dimensionless parameter called cell index, which evaluates the ionic environment at an electrode/solution interface and integrates information on cell number. Depending on the cell line 5 × 10^3–1 × 10^4 cells were plated in each well of the 16-well plates in 200 μl of cell culture medium. After seeding, cells were allowed to settle for 30 min at room temperature before being inserted into the xCELLigence instrument in a humidified incubator at 37 °C with 10% CO2. For RTCA experiments assaying cells stably expressing the inducible shRNA transgene, cells were seeded onto the E-plates in medium supplemented with 200 ng ml^−1 doxycycline. […] The small-molecule inhibitors were added at indicated time points and in the indicated concentrations. […] All assays were performed in duplicates. The cell index was normalized to 1 at the time point of drug administration.

Erk phosphorylation = experiment: western blot, Erk phosphorylation in Panc-Tu-I
Procedure: To examine whether PDEδ inhibition by Deltarasin and Deltazinone 1 downregulates the signal transduction via these pathways, we examined the phosphorylation of extracellular signal regulated kinase (Erk) and S6 Ribosomal Protein (S6P) in the oncogenic KRas-dependent Panc-Tu-1 and KRas-independent PANC-1 cells. […] Cells were lysed with RIPA-buffer (20 mM Tris pH 7.5, 150 mM NaCl, 0.5 mM Na2 EDTA, 1 % sodium deoxycholate, 0.1% sodium dodecyl sulfate, 1% IGEPAL supplemented with Complete Mini EDTA-free protease inhibitor (Roche Applied Science) and 1% phosphatase inhibitor cocktail 2 and 3 (P5726 and P0044, Sigma Aldrich), scraped off after 5 min on ice and centrifuged at 14,000g for 20 min at 4 °C. SDS–polyacrylamide gel electrophoresis was carried out with 10–25 μg of whole-cell lysate from each sample. The gels were blotted onto polyvinylidene difluoride membrane (Millipore) and blocked for 1 h at room temperature. […] Blots were scanned on a LI-COR Odyssey imaging system.
Western blots were quantified using ImageJ. The background of the blots was subtracted by applying the rolling ball subtraction with a radius of 50 pixels. Afterwards the integrated intensity of the bands was measured.

AMPA = experiment: Cerep binding, agonist radioligand; details: 5 µM
M (non-selective) = experiment: Cerep binding, antagonist radioligand; details: 5 µM
NK1 (h) = biological target: T19, NK1 (h) (Homo sapiens, UniProt P25103); experiment: Cerep binding, agonist radioligand; details: read-out: % Inhibition of Control Specific Binding
T19 construct: purchased Eurofins Pharma Discovery Services (CEREP diversity panel)

[6] = test system: COMT (catechol-O-methyl transferase); experiment: Cerep enzyme and cell-based assays; format: biochemical; details: 5 µM
BZD (central) = experiment: Cerep binding, agonist radioligand; details: 5 µM
PDE2A1 (h) = biological target: T20, PDE2A1 (h) (Homo sapiens, UniProt O00408); experiment: Cerep enzyme and cell-based assays; format: biochemical; details: read-out: % Inhibition of Control Values
T20 construct: Eurofins Pharma Discovery Services (CEREP diversity panel, outsourced assay)

H2 (h) = biological target: T21, H2 (h) (Homo sapiens, UniProt P25021); experiment: Cerep binding, antagonist radioligand; details: read-out: % Inhibition of Control Specific Binding
T21 construct: purchased Eurofins Pharma Discovery Services (CEREP diversity panel)

ETA (h) = biological target: T22, ETA (h) (Homo sapiens, UniProt P25101); experiment: Cerep binding, agonist radioligand; details: read-out: % Inhibition of Control Specific Binding
T22 construct: purchased Eurofins Pharma Discovery Services (CEREP diversity panel)

BLT1 (LTB4) (h) = biological target: T23, BLT1 (LTB4) (h) (Homo sapiens, UniProt Q15722); experiment: Cerep binding, agonist radioligand; details: read-out: % Inhibition of Control Specific Binding
T23 construct: purchased Eurofins Pharma Discovery Services (CEREP diversity panel)

ETB (h) = biological target: T24, ETB (h) (Homo sapiens, UniProt P24530); experiment: Cerep binding, agonist radioligand; details: read-out: % Inhibition of Control Specific Binding
T24 construct: purchased Eurofins Pharma Discovery Services (CEREP diversity panel)

KATP channel = experiment: Cerep binding, antagonist radioligand; details: 5 µM
[7] = biological target: T25, sirtuin 2 (h) (inhibitor effect) (Homo sapiens, UniProt Q8IXJ6); experiment: Cerep enzyme and cell-based assays; format: biochemical; details: read-out: % Inhibition of Control Values
T25 construct: Eurofins Pharma Discovery Services (CEREP diversity panel, outsourced assay)

Panc-Tu-I cells [8] = experiment: long-term time-lapse microscopy; details: 72 h, 5 μM Deltarasin or 10 μM Deltazinone 1

`Cc1ccc(-n2nc3c(=O)n(CCCC(=O)NCC(C)c4ccccc4)nc(C)c3c2C)cc1` (centres unmarked) [2k] was tested, and the “% Inhibition of Control Specific Binding” value (I2) was 39%, the “% Inhibition of Control Specific Binding” value [1] was -4% and the inhibition at 5 µM (5-HT transporter (h)) was -8%. The inhibition at 5 µM (beta 2 (h)) was 9%, the “% Inhibition of Control Values” [2] was 2% and the inhibition at 5 µM (MC4 (h)) was -1%. The inhibition at 5 µM (CB2 (h)) was 12%, the “% Inhibition of Control Specific Binding” value (alpha 2 (non-selective)) was 3% and the inhibition at 5 µM (H1 (h)) was 2%. For the same molecule, the “% Inhibition of Control Specific Binding” value [3] was 3%, the inhibition at 5 µM (PDE1B (h)) was 7% and the inhibition at 5 µM (5-lipoxygenase (h)) was 1%. For the same molecule, the inhibition at 5 µM (NK2 (h)) was -4%, the inhibition at 5 µM (NOP (ORL1) (h)) was 6% and the inhibition at 5 µM (Eg5 (h)) was 3%. For the same molecule, the inhibition at 5 µM (dopamine transporter (h)) was 17%, the inhibition at 5 µM (AR (h)) was 5% and the inhibition at 5 µM (V1a (h)) was -4%. For the same molecule, the “% Inhibition of Control Specific Binding” value (Cl- channel (GABA-gated)) was 17%, the inhibition at 5 µM (PPARgamma (h)) was -14% and the inhibition at 5 µM [4] was 8%. It also gave an inhibition at 5 µM (CCK1 (CCKA) (h)) of 22%, an inhibition at 5 µM (D1 (h)) of 2% and an inhibition at 5 µM (A1 (h)) of 0%. The “onset of cell death after treatment” value (Panc-Tu-I cells [5]; 24 μM) was about 13 h, the “time after administration at which decreasing cell indices indicated cell death” value (Panc-Tu-I cells [5]; doses higher than 3 μM) was about 30 h and the “EGF-induced Erk phosphorylation” value (Erk phosphorylation; 20 μM, longer incubation times (>3 h)) was “reduced”. For the same molecule, the “EGF-induced Erk phosphorylation” value (Erk phosphorylation; 1 h, 5 μM Deltarasin or 20 μM Deltazinone 1, 5 min EGF) was “did not significantly affect”, the “% Inhibition of Control Specific Binding” value (AMPA) was 2% and the “% Inhibition of Control Specific Binding” value (M (non-selective)) was 21%. The inhibition at 5 µM (NK1 (h)) was 3%, the “% Inhibition of Control Values” [6] was 11% and the “% Inhibition of Control Specific Binding” value (BZD (central)) was -24%. For the same molecule, the inhibition at 5 µM (PDE2A1 (h)) was 2%, the inhibition at 5 µM (H2 (h)) was 5% and the inhibition at 5 µM (ETA (h)) was -7%. For the same molecule, the inhibition at 5 µM (BLT1 (LTB4) (h)) was 16%, the inhibition at 5 µM (ETB (h)) was -12% and the “% Inhibition of Control Specific Binding” value (KATP channel) was 16%. For the same molecule, the inhibition at 5 µM [7] was 6% and the “cell death in time-lapse microscopy” value (Panc-Tu-I cells [8]) was “cell death”.
